For series [1], the target named is glyceraldehyde 3-phosphate dehydrogenase (Homo sapiens, UniProt P04406). In words: Enzymatic effect in vitro: lifting of somantine inhibition of glyceraldehyde 3-phosphate dehydrogenase. The series is classed as biochemical. The protocol:
In this test, the compound (I) was tested for its ability to raise the inhibition of a somantine extracted from a plasma with respect to the action of glyceraldehyde 3-phosphate dehydrogenase.
To this end, the activity of the enzyme in the presence successively of somantine alone, of the compound (I) alone, and finally in the presence of somantine and of the compound (I), were measured.
In this test, the glyceraldehyde 3-phosphate dehydrogenase was used at a concentration of 0.5 μg/ml, the somantine at 25 μg/ml, and the compound (I) at 50 μg/ml.
The method used for the measurements is that of Pihl and Lang (J. Biol. Chem 237: 1356-1362, 1962).

In series [2] the test system is adult rabbits. In words: Effect on the in vivo effect of insulin: intravenous glucose test in the rabbit. On the procedure:
The assays were carried out in the course of the tests carried out to determine the resistance to glucose injected by the intravenous route in the rabbit.
These tests were done on adult rabbits, which had been subjected to prior fasting for 24 hours. Blood was drawn off and the glucose level in the blood samples was determined. The measurement was carried out by the ferricyanide method as adapted for the "Technicon Autoanalyser" (J. Biol. Chem. 120: 51-55, 1937). In this way the glucose level on fasting, then its variation after the intravenous injection of glucose, at the dose of 1 gram per kilo, was determined. These measurements were then renewed in rabbits which had received, 5 minutes after the glucose, an intravenous injection of the compound (1) (5 μg/kg).

Series [3] concerns hepatic cells. The series is described as follows: Insulin binding to hepatic cells. The series is classed as cell-based. The protocol: In the same way, the ratio of insulin binding to hepatic cells placed in a suitable reaction medium was measured. When the medium contains octapeptide (I), the ratio of insulin binding to the hepatic cells increases. The result is similar if the said cells are incubated with octapeptide (I).

For series [4], the system named is glucose receptors of the Langerhans islets. In words: Insulin liberated by Langerhans islets removed from treated animals. The series is classed as in vivo. The following applies: islets removed one day or four days after injection; medium supplemented with glucose. The protocol:
Finally, the effect of the octapeptide (I) on the glucose receptors of the Langerhans islets was determined. For this purpose, the octapeptide (I) was injected into animals.
One day or four days later, the animals were killed and the islets of Langerhans removed. The latter were placed in a reaction medium supplemented with glucose, and the amount of insulin liberated was determined and compared to controls.

The subject of series [5] is mice. The series is described as follows: Tolerance: acute and subacute toxicity study in mice. The series is classed as in vivo. The note with it: 1 month, daily dosages 5 to 10 times the active dosage. On the procedure: An acute and subacute toxicity study was carried out on mice for 1 month, each mouse receiving daily dosages corresponding to 5 to 10 times the active dosage.

Series [6] has as its system mice. In words: Influence on glycemia in mice after glucose injection. The series is classed as in vivo. From the text:
Influence of octapeptide (I) on glycemia has been determined in mice under conditions similar to those described for rabbits. The experiment included two series of tests aimed at studying the immediate effects and the prolonged effects.
In the first series of tests, a simultaneous injection of glucose and of the octapeptide (I) was made, and the lowering of glycemia with respect to that of control animals which had not received glucose, was followed as a function of time.
The injections were respectively of 0.25 g of glucose and 2 mg per kilo of body weight of the animal, namely about 40 μ/g, of octapeptide (I) or […].
In the second series of tests, the mice received the product before the injection of glucose. Three injections each of 40 μg of octapeptide (I) were administered respectively 72, 48 and 24 hours before the injection of glucose.

The test system of series [7] is insulin receptors of lipid cells. In words: Insulin binding to trypsinated lipid cells. The series is classed as cell-based. The note with it: octapeptide introduced into the medium; trypsinated cells alone no longer fix insulin. From the text:
In an attempt to elucidate the mechanism of action of the octapeptide (I) with respect to insulin, the phenomena were first studied at the level of the insulin receptors of lipid cells trypsinated to destroy said receptors.

In series [8] the test system is diabetic rats. In words: Effect on glycemia in diabetic animals. The series is classed as in vivo. The following applies: diabetic rats fasted 4 hours; glucose 0.5 g/kg; octapeptide 2 μg/g. On the procedure: In this test, the drop in glycemia was compared after the simultaneous injection of glucose, on the one hand, and, on the other hand, either of the octapeptide at the dosage of […], or of insulin, or again of both at once. In that latter case the dosage of octapeptide used was also 2 μg/g.
The tests were carried out on diabetic rats, kept fasting for 4 hours before the injection of glucose (at the dose of 0.5 g/kg of animal).

The subject of series [9] is isolated hemidiaphragm of the rat. The series is described as follows: Consumption of glucose in vitro, isolated rat hemidiaphragm. The series is classed as cell-based, Wistar albino male rats. The note with it: related to the weight of tissue in grams and per hour; glucose 2 mg/ml, insulin 500 μU/ml, compound (I) 250 μg/ml. On the procedure: To follow this consumption, the isolated hemidiaphragm of the rat in vitro was used. The method employed is that described by Park et al. (Effect of insulin on free glucose content of rat diaphragm in vitro - Amer. J. Physiol. 182: 12-16, 1955). The hemidiaphragm derived from Wistar albino male rats each weighing 200 to 250 g was used. The rats were fed freely for 7 days and then starved for 24 hours. The solutions studied contained 2 mg/ml of glucose, 500 μU/ml of insulin. The compound (I) was introduced at 250 μg/ml. The consumption of glucose related to the weight of tissue in grams and per hour was under these conditions: […]

The results in this text go back to US4125606A, “Octapeptide useful for the treatment of diabetes” (Choay S.A., priority 1974, dated 1978).

Where no end group is shown, it is not given here.

glyceraldehyde 3-phosphate dehydrogenase, sequence (P04406 whole entry, species assumed): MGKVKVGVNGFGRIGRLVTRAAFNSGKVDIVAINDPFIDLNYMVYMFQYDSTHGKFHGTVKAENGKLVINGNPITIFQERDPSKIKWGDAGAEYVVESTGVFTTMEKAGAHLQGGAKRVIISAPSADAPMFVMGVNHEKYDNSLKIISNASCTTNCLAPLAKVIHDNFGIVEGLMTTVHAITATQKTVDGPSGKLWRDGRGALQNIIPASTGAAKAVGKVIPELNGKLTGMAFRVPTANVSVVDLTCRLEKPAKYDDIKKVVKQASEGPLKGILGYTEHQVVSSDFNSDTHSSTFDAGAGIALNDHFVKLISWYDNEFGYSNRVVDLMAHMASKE

In the case of “LSRLFDNA [compound (I), leucyl - seryl - arginyl - leucyl - phenylalanyl - aspartyl - asparaginyl - alanine]”, in series [1] (compound (I) 50 μg/ml together with somantine 25 μg/ml), the “effect on the inhibiting effect of somantine (in words)” value is reported as “inhibiting effect of somantine to be partly suppressed”. The “effect on the activity of the enzyme (in words)” value in series [1] (compound (I) alone, 50 μg/ml) was “practically without effect on the activity of the enzyme”. In addition, the “decrease in the blood glucose level after intravenous glucose (in words)” value in [2] (rabbits fasted 24 hours, glucose 1 g/kg i.v., compound 5 μg/kg i.v. 5 minutes after the glucose) was “decrease in the glucose level is greater”. In addition, the “glucose level reached, compared with fasting level (in words)” value in series [2] (rabbits, glucose 1 g/kg i.v., compound 5 μg/kg i.v.) is “glucose level even reached values less than those which were measured in the fasting rabbits”. Besides, the “persistence of the effect on carbohydrate metabolism (in words)” value in series [2] (similar tests at intervals of several days after the injection) is “persists several days”. Moreover, the “ratio of insulin binding to hepatic cells (in words)” value in series [3] (cells incubated with octapeptide (I)) was “similar”; in series [3] (medium contains octapeptide (I)), “increases”. Moreover, the “level of liberated insulin compared to controls (in words)” value in series [4] is on record as “very substantial increase”. The “toxic effect, macro and microscopic studies (in words)” value in series [5] is “not shown any toxic effect”. In series [6] (simultaneous injection of glucose 0.25 g and octapeptide 2 mg per kilo), the “drop in glycemia, immediate effect (in words)” value was “drop in glycemia distinctly more accentuated”. The “drop in glycemia, prolonged effect (in words)” value in [6] (three injections of 40 μg at 72, 48 and 24 hours before glucose, versus control mice receiving only glucose) is “more rapid drop in glycemia”. In addition, in series [7], the “insulin binding to trypsinated lipid cells (in words)” value was “the binding reappears”. The “course of glycemia after glucose injection (in words)” value in [8] is “glycemia is practically unmodified”.
For the substance “insulin: insulin; in the hemidiaphragm test 500 μU/ml in a 2 mg/ml glucose solution [reference compound]”, the “Consumption of glucose” value in series [9] came out at 4.10 ± 0.15 mg. Moreover, the “course of glycemia after glucose injection (in words)” value in [8] was “decreases rapidly, stabilises, then rises again”.
